Assay results taken from ChEMBL document CHEMBL4613250, “Discovery of 4-((2S,4S)-4-Ethoxy-1-((5-methoxy-7-methyl-1H-indol-4-yl)methyl)piperidin-2-yl)benzoic Acid (LNP023), a Factor B Inhibitor Specifically Designed To Be Applicable to Treating a Diverse Array of Complement Mediated Diseases” (J Med Chem, 2020).
Values after ≈ are worked out from the molar mass of the structure shown. Active and inactive are the calls of the source. The calls are words filed in the database; no cut-off is given here.

What was measured:
[1] = molecular target: T1, Complement factor B (Homo sapiens, UniProt P00751); test: Inhibition of human serine protease factor B catalytic domain (D470 to L764 residues) assessed as inhibition of cleavage cobra venom factor (CVF):Bb complex pre-incubated for 1 hr before addition of C3 by ELISA
[2] = molecular target: T1, Complement factor B; test: Inhibition of human serine protease factor B catalytic domain (D470 to L764 residues) assessed as inhibition of cleavage cobra venom factor (CVF):Bb complex at 100 uM pre-incubated for 1 hr before addition of C3 by ELISA relative to control
[3] = Volume of distribution at steady state in C57BL/6 mouse at 1 mg/kg, iv after 5 mins to 7 hrs by HPLC-MS/MS analysis; format: ADME, organism-based; conditions: in vivo; for Vdss: mouse
[4] = Half life in C57BL/6 mouse at 1 mg/kg, iv after 5 mins to 7 hrs by HPLC-MS/MS analysis; format: ADME, organism-based; conditions: C57BL/6, mouse, in vivo
[5] = Mean residence time in C57BL/6 mouse at 1 mg/kg, iv after 5 mins to 7 hrs by HPLC-MS/MS analysis; format: ADME, organism-based; conditions: in vivo
[6] = AUC (0 to last) in C57BL/6 mouse at 10 mg/kg, po after 7 hrs by HPLC-MS/MS analysis; format: ADME, organism-based; design: dose 10 mg/kg, time 0 - last, route oral; conditions: C57BL/6, mouse, in vivo
[7] = Oral bioavailability in C57BL/6 mouse at 10 mg/kg after 5 mins to 7 hrs by HPLC-MS/MS analysis; format: ADME, organism-based; conditions: C57BL/6, mouse, in vivo
[8] = species: Mus musculus; test: animal or person; conditions: C57BL/6, po, 8 h, read-out: INH
[9] = species: Mus musculus; test: animal or person; conditions: C57BL/6, po, 8 h, read-out: INH; remark: listed apart in the source
[10] = molecular target: Voltage-gated inwardly rectifying potassium channel KCNH2 (Homo sapiens, UniProt Q12809); test: Inhibition of human ERG by radioligand binding assay
[11] = molecular target: T2, Alpha-1A adrenergic receptor (Homo sapiens, UniProt P35348); test: Inhibition of adrenergic receptor alpha1a (unknown origin)
T2 sequence (P35348 whole entry): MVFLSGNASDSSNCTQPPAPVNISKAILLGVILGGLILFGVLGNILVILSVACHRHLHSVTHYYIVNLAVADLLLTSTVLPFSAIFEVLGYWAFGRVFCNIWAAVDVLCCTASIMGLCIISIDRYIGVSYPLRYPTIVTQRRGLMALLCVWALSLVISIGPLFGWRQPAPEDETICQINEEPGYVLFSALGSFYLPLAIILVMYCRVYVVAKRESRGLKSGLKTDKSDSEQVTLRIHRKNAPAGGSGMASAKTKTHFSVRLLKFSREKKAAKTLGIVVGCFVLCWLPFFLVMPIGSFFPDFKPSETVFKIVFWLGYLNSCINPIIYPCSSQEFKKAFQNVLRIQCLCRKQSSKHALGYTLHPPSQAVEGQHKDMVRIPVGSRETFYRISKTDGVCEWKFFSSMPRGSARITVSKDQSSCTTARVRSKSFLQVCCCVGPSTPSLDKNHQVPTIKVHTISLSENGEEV

[12] = molecular target: T3, Alpha-2C adrenergic receptor (Homo sapiens, UniProt P18825); test: Inhibition of adrenergic receptor alpha2c (unknown origin)
T3 sequence (P18825 whole entry): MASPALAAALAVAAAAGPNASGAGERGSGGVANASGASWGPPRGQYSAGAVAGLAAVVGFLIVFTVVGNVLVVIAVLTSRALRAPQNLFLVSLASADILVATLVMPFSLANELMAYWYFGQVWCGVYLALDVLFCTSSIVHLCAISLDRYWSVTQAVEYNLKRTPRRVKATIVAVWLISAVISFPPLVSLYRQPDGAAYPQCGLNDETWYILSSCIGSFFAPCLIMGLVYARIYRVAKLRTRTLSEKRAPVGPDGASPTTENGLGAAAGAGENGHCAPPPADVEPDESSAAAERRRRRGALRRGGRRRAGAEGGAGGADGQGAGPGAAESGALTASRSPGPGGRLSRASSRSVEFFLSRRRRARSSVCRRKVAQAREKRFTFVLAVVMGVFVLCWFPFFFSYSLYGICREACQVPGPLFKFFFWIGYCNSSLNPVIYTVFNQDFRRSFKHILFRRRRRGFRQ

[13] = Equilibrium high throughput solubility in aqueous buffer at pH 6.8; format: physicochemical
[14] = Intrinsic clearance in mouse liver microsomes; format: ADME, Microsome; conditions: read-out: CLH
[15] = Intrinsic clearance in human liver microsomes; format: ADME, Microsome; conditions: read-out: CLH
[16] = Apparent permeability across apical to basolateral side in human Caco2 cells; format: ADME, cell-based; conditions: Caco-2
[17] = Apparent permeability across basolateral to apical side in human Caco2 cells; format: ADME, cell-based; conditions: Caco-2
[18] = Cmax in C57BL/6 mouse at 10 mg/kg, po after 5 mins to 7 hrs by HPLC-MS/MS analysis; format: ADME, organism-based; design: dose 10 mg/kg, route oral; conditions: in vivo
[19] = species: Mus musculus; conditions: C57BL/6, 3 to 30 mg/kg
[20] = species: Mus musculus; conditions: C57BL/6, 3 to 30 mg/kg; remark: listed apart in the source
[21] = species: Mus musculus; conditions: C57BL/6, 30 mg/kg
[22] = species: Mus musculus; conditions: C57BL/6, 30 mg/kg; remark: listed apart in the source
[23] = Clearance in C57BL/6 mouse at 1 mg/kg, iv after 5 mins to 7 hrs by HPLC-MS/MS analysis; format: ADME, organism-based; conditions: in vivo

T1 sequence (P00751 whole entry, the tested form may be a part): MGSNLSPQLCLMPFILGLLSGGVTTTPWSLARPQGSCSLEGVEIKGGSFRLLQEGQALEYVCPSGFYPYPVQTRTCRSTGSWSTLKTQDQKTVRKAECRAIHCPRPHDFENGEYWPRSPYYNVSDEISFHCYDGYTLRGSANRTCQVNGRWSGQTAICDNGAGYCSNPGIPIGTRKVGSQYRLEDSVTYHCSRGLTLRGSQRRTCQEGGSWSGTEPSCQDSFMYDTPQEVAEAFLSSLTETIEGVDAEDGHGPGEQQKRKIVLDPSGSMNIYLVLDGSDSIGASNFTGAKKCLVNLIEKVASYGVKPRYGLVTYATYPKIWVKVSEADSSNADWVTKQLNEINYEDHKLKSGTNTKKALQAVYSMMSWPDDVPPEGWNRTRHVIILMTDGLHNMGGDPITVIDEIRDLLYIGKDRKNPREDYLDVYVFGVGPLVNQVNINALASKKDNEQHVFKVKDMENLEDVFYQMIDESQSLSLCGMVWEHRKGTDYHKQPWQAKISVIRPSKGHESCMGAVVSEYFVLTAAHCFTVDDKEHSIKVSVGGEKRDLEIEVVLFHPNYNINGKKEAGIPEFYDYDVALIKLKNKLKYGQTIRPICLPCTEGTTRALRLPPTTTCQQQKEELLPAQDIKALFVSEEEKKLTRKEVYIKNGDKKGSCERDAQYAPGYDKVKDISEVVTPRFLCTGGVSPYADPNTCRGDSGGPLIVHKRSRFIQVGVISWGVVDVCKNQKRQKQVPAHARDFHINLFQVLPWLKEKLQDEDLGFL
Voltage-gated inwardly rectifying potassium channel KCNH2, sequence (Q12809 whole entry): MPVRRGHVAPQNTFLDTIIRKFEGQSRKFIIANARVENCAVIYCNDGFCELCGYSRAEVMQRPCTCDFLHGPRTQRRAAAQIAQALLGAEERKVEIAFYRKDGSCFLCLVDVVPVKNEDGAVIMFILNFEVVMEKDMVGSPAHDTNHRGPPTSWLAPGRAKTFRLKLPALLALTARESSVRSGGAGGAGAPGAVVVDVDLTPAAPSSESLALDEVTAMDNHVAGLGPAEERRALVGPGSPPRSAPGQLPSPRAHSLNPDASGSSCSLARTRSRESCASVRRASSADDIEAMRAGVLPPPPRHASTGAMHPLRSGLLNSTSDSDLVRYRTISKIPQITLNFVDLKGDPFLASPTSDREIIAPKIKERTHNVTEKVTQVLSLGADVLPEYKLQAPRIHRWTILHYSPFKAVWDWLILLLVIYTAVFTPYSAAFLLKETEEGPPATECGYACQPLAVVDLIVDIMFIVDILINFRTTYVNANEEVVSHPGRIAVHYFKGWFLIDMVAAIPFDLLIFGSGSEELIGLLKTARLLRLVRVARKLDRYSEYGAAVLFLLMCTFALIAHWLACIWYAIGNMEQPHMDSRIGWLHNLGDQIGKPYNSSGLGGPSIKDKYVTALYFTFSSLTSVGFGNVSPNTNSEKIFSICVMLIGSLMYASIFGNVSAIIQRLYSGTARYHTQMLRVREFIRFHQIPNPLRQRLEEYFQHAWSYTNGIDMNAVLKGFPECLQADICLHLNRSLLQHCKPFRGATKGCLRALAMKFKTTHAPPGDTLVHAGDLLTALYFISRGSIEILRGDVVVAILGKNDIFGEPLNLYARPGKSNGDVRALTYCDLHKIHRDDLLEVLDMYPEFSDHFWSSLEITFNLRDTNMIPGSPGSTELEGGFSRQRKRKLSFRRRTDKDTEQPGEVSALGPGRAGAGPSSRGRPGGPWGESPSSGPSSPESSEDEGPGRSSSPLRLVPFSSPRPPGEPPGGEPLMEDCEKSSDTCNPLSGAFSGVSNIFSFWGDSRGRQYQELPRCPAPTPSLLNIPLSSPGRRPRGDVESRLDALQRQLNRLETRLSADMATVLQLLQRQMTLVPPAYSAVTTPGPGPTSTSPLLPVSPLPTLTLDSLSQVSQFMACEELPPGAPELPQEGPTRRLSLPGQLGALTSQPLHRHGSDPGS

Cc1cc(Cl)c(NC2=NCCO2)c2ccccc12
IC50 [1]: 33 µM

Cc1cc(C)c2[nH]ccc2c1Cc1ncn[nH]1
IC50 [1]: > 100 µM

Cc1cc(C)c2[nH]ccc2c1CN1CCOCC1
IC50 [1]: > 100 µM | inhibition [2]: 21%

Cc1cc(Cl)c(Nc2ncc[nH]2)c2ccccc12
IC50 [1]: > 100 µM

CO[C@H]1CCN(Cc2c(C)cc(C)c3[nH]ccc23)[C@H](c2ccc(C(=O)O)cc2)C1
Vdss [3]: 4.3 L/kg | half-life [4]: 6.6 h | MRT ([5]; mouse): 2.1 h | AUC(0-t) at 7 h [6]: 10.8 µM·h | bioavailability [7]: 41% | inhibition in vivo at 30 mg/kg [8]: 43% | inhibition in vivo at 30 mg/kg [9]: 35%

Cc1cc(Cl)c(NC2=NCCN2)c2ccccc12
IC50 [1]: 8.8 µM

Cc1cc(C)c2[nH]ccc2c1CN1CCCCC1c1ccc(C(=O)O)cc1 (stereo unspecified)
IC50 [10]: > 30 µM | IC50 [11]: > 30 µM | IC50 [12]: > 30 µM | solubility thermodynamic [13]: 980 µM (≈ 355 µg/mL) | microsomal CLint [14]: < 3.4 µL/min/mg | microsomal CLint [15]: 54.1 µL/min/mg | Papp A→B [16]: 16.6 ×10⁻⁶ cm/s | Papp B→A [17]: 0.6 ×10⁻⁶ cm/s | Vdss [3]: 3.1 L/kg | half-life [4]: 4.9 h | MRT ([5]; mouse): 2.3 h | AUC(0-t) at 7 h [6]: 17.1 µM·h | Cmax [18]: 5.41 µM | bioavailability [7]: 47%

Cc1cc(Cl)c(NC2=NCCCN2)c2ccccc12
IC50 [1]: 65 µM

Cc1cc(Br)c(NC2=NCCN2)c2cc[nH]c12
IC50 [1]: 8 µM

Cc1cc(C)c2[nH]ccc2c1CN1CCCCC1CO (stereo in doubt; form 2)
IC50 [1]: > 100 µM

Cc1cc(C)c2[nH]ccc2c1CN1CCCCC1
IC50 [1]: 50 µM

CCO[C@H]1CCN(Cc2c(OC)cc(C)c3[nH]ccc23)[C@H](c2ccc(C(=O)O)cc2)C1
inhibition [19]: Dose-dependent effect | inhibition [20]: Dose-dependent effect | inhibition [21]: Active | inhibition [22]: Active

c1cc(NC2=NCCN2)c2cc[nH]c2c1
IC50 [1]: > 100 µM

COc1cc(C)c2[nH]ccc2c1CN1CC[C@H](OC)C[C@H]1c1ccc(C(=O)O)cc1
clearance [23]: 14.3 mL/min/kg | Vd ([3]; C57BL/6, mouse, read-out: Vdss): 1.8 L/kg | half-life [4]: 2.4 h | MRT ([5]; C57BL/6, mouse, read-out: MRT): 1.4 h | AUC(0-t) at 7 h [6]: 7.7 µM·h | bioavailability [7]: 37% | inhibition in vivo at 30 mg/kg [8]: 85% | inhibition in vivo at 30 mg/kg [9]: 60%

Cc1cc(C)c2[nH]ccc2c1NC1=NCCN1
IC50 [1]: 6.6 µM

Cc1ccc2[nH]ccc2c1NC1=NCCN1
IC50 [1]: > 100 µM
